This is an account of results in patent US10112941B2, “Tricyclic compounds as anticancer agents” (BRISTOL-MYERS SQUIBB COMPANY, priority 2013, dated 2018).

By IC50 is commonly meant the midpoint of a concentration-inhibition curve.

This test has as its target BRD4 (Homo sapiens, UniProt O60885). Nature of the test: Time Resolved Fluorescence Resonance Energy Transfer (TR-FRET) binding assay, BRD4. The note with it: one of the FRET assays described; read-out: FRET BRD4 IC50.

`[2H]C([2H])([2H])c1nnn(C)c1-c1cnc2c3c(OC)cc(S(C)(=O)=O)cc3n([C@H](c3ccccc3)C3CCOCC3)c2c1` [Example 197, 5-{7-Methanesulfonyl-9-methoxy-5-[(S)-oxan-4-yl(phenyl)methyl]-5H-pyrido[3,2-b]indol-3-yl}-4-(^2H3)methyl-1-methyl-1H-1,2,3-triazole]: the IC50 was below 5 nM.

As for `[2H]C([2H])([2H])c1nnn(C)c1-c1cnc2c3c(OC)cc(S(C)(=O)=O)cc3n([C@H](c3ccccc3F)C3CCOCC3)c2c1` [Example 198, 5-{5-[(S)-(2-Fluorophenyl)(oxan-4-yl)methyl]-7-methanesulfonyl-9-methoxy-5H-pyrido[3,2-b]indol-3-yl}-4-(^2H3)methyl-1-methyl-1H-1,2,3-triazole], the IC50 was below 5 nM.

As to `[2H]C([2H])([2H])c1nnn(C)c1-c1cnc2c3c(F)cc(S(C)(=O)=O)cc3n([C@H](c3ccc(F)cc3)C3CCOCC3)c2c1` [Example 201, 5-{9-Fluoro-5-[(S)-(4-fluorophenyl)(oxan-4-yl)methyl]-7-methanesulfonyl-5H-pyrido[3,2-b]indol-3-yl}-4-(^2H3)methyl-1-methyl-1H-1,2,3-triazole], the IC50 was below 5 nM.

As to `[2H]C([2H])([2H])c1nnn(C)c1-c1cnc2c3c(OC)cc(S(C)(=O)=O)cc3n([C@H](c3ccc(F)cc3)C3CCOCC3)c2c1` [Example 202, 5-{5-[(S)-(4-Fluorophenyl)(oxan-4-yl)methyl]-7-methanesulfonyl-9-methoxy-5H-pyrido[3,2-b]indol-3-yl}-4-(^2H3)methyl-1-methyl-1H-1,2,3-triazole], the IC50 is below 5 nM.

Regarding `[2H]C([2H])([2H])c1nnn(C)c1-c1cnc2c3ccc(C(C)(C)O)cc3n(C(c3ccccc3)C3CCC(F)(F)CC3)c2c1` (stereo not shown) [Example 204, 2-{5-[(4,4-Difluorocyclohexyl)(phenyl)methyl]-3-[4-(^2H3)methyl-1-methyl-1H-1,2,3-triazol-5-yl]-5H-pyrido[3,2-b]indol-7-yl}propan-2-ol], the IC50 was below 5 nM.

In the case of `[2H]C([2H])([2H])c1nnn(C)c1-c1cnc2c3c(OC)cc(S(C)(=O)=O)cc3n(C(c3ncccc3F)C3CCOCC3)c2c1` (stereo not shown) [Example 207, 3-Fluoro-2-[{7-methanesulfonyl-9-methoxy-3-[4-(^2H3)methyl-1-methyl-1H-1,2,3-triazol-5-yl]-5H-pyrido[3,2-b]indol-5-yl}(oxan-4-yl)methyl]pyridine], the IC50 was below 5 nM.

For the compound `[2H]C([2H])([2H])c1nnn(C)c1-c1cnc2c3c(OC)cc(S(C)(=O)=O)cc3n(C(c3ncccc3F)C3CCOCC3)c2c1` (stereo not shown) [Example 208, 3-Fluoro-2-[{7-methanesulfonyl-9-methoxy-3-[4-(^2H3)methyl-1-methyl-1H-1,2,3-triazol-5-yl]-5H-pyrido[3,2-b]indol-5-yl}(oxan-4-yl)methyl]pyridine], the IC50 is below 5 nM.

On to `[2H]C([2H])([2H])c1nnn(C)c1-c1cnc2c3c(OCC)cc(S(C)(=O)=O)cc3n(C(c3ccccc3)C3CCC(F)(F)CC3)c2c1` [Example 209, 5-{5-[(S)-(4,4-Difluorocyclohexyl)(phenyl)methyl]-9-ethoxy-7-methanesulfonyl-5H-pyrido[3,2-b]indol-3-yl}-4-(^2H3)methyl-1-methyl-1H-1,2,3-triazole], for which the IC50 is below 5 nM.

As for `[2H]C([2H])([2H])c1nnn(C)c1-c1cnc2c3c(OCC)cc(S(C)(=O)=O)cc3n(C(c3ccccc3)C3CCC(F)(F)CC3)c2c1` [Example 210, 5-{5-[(S)-(4,4-Difluorocyclohexyl)(phenyl)methyl]-9-ethoxy-7-methanesulfonyl-5H-pyrido[3,2-b]indol-3-yl}-4-(^2H3)methyl-1-methyl-1H-1,2,3-triazole], the IC50 is below 5 nM.

As for `[2H]C([2H])([2H])c1nnn(C)c1-c1cnc2c3c(F)cc(S(C)(=O)=O)cc3n(C(c3ncccc3F)C3CCC(F)(F)CC3)c2c1` (stereo not shown) [Example 211, 2-[(4,4-Difluorocyclohexyl)({9-fluoro-7-methanesulfonyl-3-[4-(^2H3)methyl-1-methyl-1H-1,2,3-triazol-5-yl]-5H-pyrido[3,2-b]indol-5-yl})methyl]-3-fluoropyridine], the IC50 was below 5 nM.

In the case of `[2H]C([2H])([2H])c1nnn(C)c1-c1cnc2c3c(F)cc(S(C)(=O)=O)cc3n(C(c3ncccc3F)C3CCC(F)(F)CC3)c2c1` (stereo not shown) [Example 212, 2-[(4,4-Difluorocyclohexyl)({9-fluoro-7-methanesulfonyl-3-[4-(^2H3)methyl-1-methyl-1H-1,2,3-triazol-5-yl]-5H-pyrido[3,2-b]indol-5-yl})methyl]-3-fluoropyridine], the IC50 is below 5 nM.

Consider `Cc1nnn(C)c1-c1cnc2c3c(NS(C)(=O)=O)ccc(S(C)(=O)=O)c3n([C@H](c3ccccc3)C3CCOCC3)c2c1` [Example 216, N-[3-(dimethyl-1H-1,2,3-triazol-5-yl)-6-methanesulfonyl-5-[(S)-oxan-4-yl(phenyl)methyl]-5H-pyrido[3,2-b]indol-9-yl]methanesulfonamide], for which the IC50 was below 5 nM.

As for `Cc1nnn(C)c1-c1cnc2c3c(NS(=O)(=O)C4CC4)ccc(S(C)(=O)=O)c3n([C@H](c3ccccc3)C3CCOCC3)c2c1` [Example 218], the IC50 is below 5 nM.

With `[2H]C([2H])([2H])c1nnn(C)c1-c1cnc2c3c(F)ccc(S(C)(=O)=O)c3n([C@H](c3ccccc3)C3CCOCC3)c2c1` [Example 221, 5-{9-Fluoro-6-methanesulfonyl-5-[(S)-oxan-4-yl(phenyl)methyl]-5H-pyrido[3,2-b]indol-3-yl}-4-(^2H3)methyl-1-methyl-1H-1,2,3-triazole], the IC50 was below 5 nM.

Regarding `[2H]C([2H])([2H])c1nnn(C)c1-c1cnc2c3c(NS(=O)(=O)C4CC4)ccc(S(C)(=O)=O)c3n([C@H](c3ccccc3)C3CCOCC3)c2c1` [Example 222, N-{6-Methanesulfonyl-3-[4-(^2H3)methyl-1-methyl-1H-1,2,3-triazol-5-yl]-5-[(S)-oxan-4-yl(phenyl)methyl]-5H-pyrido[3,2-b]indol-9-yl}cyclopropanesulfonamide], the IC50 was below 5 nM.

Regarding `[2H]C([2H])([2H])c1nnn(C)c1-c1cnc2c3c(NCCCC(=O)O)ccc(S(C)(=O)=O)c3n([C@H](c3ccccc3)C3CCOCC3)c2c1` [Example 225, 4-({6-Methanesulfonyl-3-[4-(^2H3)methyl-1-methyl-1H-1,2,3-triazol-5-yl]-5-[(S)-oxan-4-yl(phenyl)methyl]-5H-pyrido[3,2-b]indol-9-yl}amino)butanoic acid], the IC50 is below 25 nM.

`[2H]C([2H])([2H])c1nnn(C)c1-c1cnc2c3c(NCC(C)(C)N)ccc(S(C)(=O)=O)c3n([C@H](c3ccccc3)C3CCOCC3)c2c1` [Example 226, N-(2-Amino-2-methylpropyl)-6-methanesulfonyl-3-[4-(^2H3)methyl-1-methyl-1H-1,2,3-triazol-5-yl]-5-[(S)-oxan-4-yl(phenyl)methyl]-5H-pyrido[3,2-b]indol-9-amine]: the IC50 was below 5 nM.

As to `[2H]C([2H])([2H])c1nnn(C)c1-c1cnc2c3c(N)ccc(S(C)(=O)=O)c3n([C@H](c3ccccc3)C3CCOCC3)c2c1` [Example 227, 6-Methanesulfonyl-3-[4-(^2H3)methyl-1-methyl-1H-1,2,3-triazol-5-yl]-5-[(S)-oxan-4-yl(phenyl)methyl]-5H-pyrido[3,2-b]indol-9-amine], the IC50 was below 5 nM.

Consider `[2H]C([2H])([2H])c1nnn(C)c1-c1cnc2c3c(NS(=O)(=O)CC(F)(F)F)ccc(S(C)(=O)=O)c3n([C@H](c3ccccc3)C3CCOCC3)c2c1` [Example 228, 2,2,2-Trifluoro-N-{6-methanesulfonyl-3-[4-(^2H3)methyl-1-methyl-1H-1,2,3-triazol-5-yl]-5-[(S)-oxan-4-yl(phenyl)methyl]-5H-pyrido[3,2-b]indol-9-yl}ethane-1-sulfonamide], for which the IC50 was below 5 nM.

Consider `[2H]C([2H])([2H])c1nnn(C)c1-c1cnc2c3c(OCC(F)F)ccc(S(C)(=O)=O)c3n([C@H](c3ccccc3)C3CCOCC3)c2c1` [Example 229, 5-[9-(2,2-Difluoroethoxy)-6-methanesulfonyl-5-[(S)-oxan-4-yl(phenyl)methyl]-5H-pyrido[3,2-b]indol-3-yl]-4-(^2H3)methyl-1-methyl-1H-1,2,3-triazole], for which the IC50 was below 5 nM.

In the case of `[2H]C([2H])([2H])c1nnn(C)c1-c1cnc2c3c(OCC(C)(F)F)ccc(S(C)(=O)=O)c3n([C@H](c3ccccc3)C3CCOCC3)c2c1` [Example 230, 5-[9-(2,2-Difluoropropoxy)-6-methanesulfonyl-5-[(S)-oxan-4-yl(phenyl)methyl]-5H-pyrido[3,2-b]indol-3-yl]-4-(^2H3)methyl-1-methyl-1H-1,2,3-triazole], the IC50 was below 5 nM.

For `[2H]C([2H])([2H])c1nnn(C)c1-c1cnc2c3c(F)ccc(S(C)(=O)=O)c3n([C@H](c3ccccc3F)C3CCOCC3)c2c1` [Example 231, 5-{9-Fluoro-5-[(S)-(2-fluorophenyl)(oxan-4-yl)methyl]-6-methanesulfonyl-5H-pyrido[3,2-b]indol-3-yl}-4-(^2H3)methyl-1-methyl-1H-1,2,3-triazole], the IC50 was below 5 nM.

Regarding `[2H]C([2H])([2H])c1nnn(C)c1-c1cnc2c3c(F)ccc(S(C)(=O)=O)c3n([C@H](c3ccc(F)cc3)C3CCOCC3)c2c1` [Example 233, 5-{9-Fluoro-5-[(S)-(4-fluorophenyl)(oxan-4-yl)methyl]-6-methanesulfonyl-5H-pyrido[3,2-b]indol-3-yl}-4-(^2H3)methyl-1-methyl-1H-1,2,3-triazole], the IC50 is below 5 nM.

For the compound `[2H]C([2H])([2H])c1nnn(C)c1-c1cnc2c3c(F)ccc(S(C)(=O)=O)c3n(C(c3ncccc3F)C3CCOCC3)c2c1` (stereo not shown) [Example 235, 3-Fluoro-2-({9-fluoro-6-methanesulfonyl-3-[4-(^2H3)methyl-1-methyl-1H-1,2,3-triazol-5-yl]-5H-pyrido[3,2-b]indol-5-yl}(oxan-4-yl)methyl)pyridine], the IC50 was below 5 nM.

In the case of `[2H]C([2H])([2H])c1nnn(C)c1-c1cnc2c3c(F)ccc(S(C)(=O)=O)c3n(C(c3ncccc3F)C3CCOCC3)c2c1` (stereo not shown) [Example 236, 3-Fluoro-2-({9-fluoro-6-methanesulfonyl-3-[4-(^2H3)methyl-1-methyl-1H-1,2,3-triazol-5-yl]-5H-pyrido[3,2-b]indol-5-yl}(oxan-4-yl)methyl)pyridine], the IC50 was below 1500 nM.
